A short description of data set [1]: Pharmacokinetic analysis after oral dosing in mice. Type of data set: in vivo, BALB/c mice. As for the experimental part: Six to eight-week-old male BALB/c (BALB/cAnNCrlBltw) mice (22-30 g) were purchased from BioLASCO Taiwan Co., Ilan, Taiwan. In vivo PK analysis of ITRI-148 was performed with 10 mg/kg for oral (PO, n = 3) dosing route. Blood samples from the mice were collected using Microvette® CB 300 EDTA blood collection tubes by a lancet at 0.167 h (IV only), 0.5, 1, 2, 4, 7 and 24 h time points. The plasma was then subjected to LC-MS analysis to quantitate the drug concentration using calibration curves that were established with drug standards prepared in mice plasma.

The test system of the next data set is AR. In words: AR degradation by immunoblotting in CRPC cells. Type of data set: cell-based. As for the experimental part:
(§1) Cell lysis, Western blotting, and AR ubiquitination were performed as described in [17]. Primary antibodies: AR (Millipore 06-680), AR-V7 (RevMAb Biosciences 31-1109-00), PSA (ABclonal A4355), NKX3-1 (Cell Signaling Technology 92998), GAPDH (Cell Signaling Technology 2118) and β-Actin (Sigma-Aldrich A5441).
(§2) Fig. 1 ITRI-148 induces degradation of both AR and AR-V7 proteins in CRPC cells. […] (B) Expression of Flag-tagged AR-V7 in 293T cells following ITRI-148 treatment. Cells transiently expressing Flag-AR-V7 were pretreated with 50 μg/mL cycloheximide for 1 hour, then exposed to ITRI-148 at the indicated concentrations for 8 hours. AR-V7 expression was detected using an anti-Flag antibody. (C) Representative immunoblots showing AR protein levels in VCaP and CWR22Rv1 cells after 48 hours of ITRI-148 treatment. An N-terminal AR antibody was used to detect both full-length AR and LBD-truncated variants (AR-V(ΔLBD)) in CWR22Rv1 cells, while AR-V7 was detected using an AR-V7-specific antibody. DC₅₀ values were calculated from normalized band intensities, and Dₘₐₓ represents the maximal degradation achieved at 10 μM ITRI-148. (D) Immunofluorescence staining of AR after 24 or 48 hours of ITRI-148 treatment, detected using an N-terminal AR antibody. […] (F) Western blot analysis of ectopically expressed wild-type (WT) and mutant Myc-tagged AR in DU145 cells following 24 hours of treatment with 10 μM ITRI-148. Quantified AR levels are as indicated. TEXT PRINTED IN THE PICTURE: (C) ITRI-148: DC50 (μM) AR CWR22Rv1: 1.23 ± 1.86; DC50 (μM) AR VCaP: 0.05 ± 0.03; DC50 (μM) AR-V7 CWR22Rv1: 1.20 ± 0.92; DC50 (μM) AR-V7 VCaP: 0.02 ± 0.02; Dmax (%) AR CWR22Rv1: 65.02 ± 19.91; Dmax (%) AR VCaP: 80.49 ± 5.61; Dmax (%) AR-V7 CWR22Rv1: 72.10 ± 3.15; Dmax (%) AR-V7 VCaP: 91.36 ± 2.05
A general note: In western blotting, separated proteins are transferred to a membrane and probed.

The target of another data set is T1, AR-V7 (Homo sapiens, UniProt P10275).
T1 construct: endogenous in cells; host or cells: VCaP, CWR22Rv1
T1 sequence (P10275 1-644 isoform P10275-3): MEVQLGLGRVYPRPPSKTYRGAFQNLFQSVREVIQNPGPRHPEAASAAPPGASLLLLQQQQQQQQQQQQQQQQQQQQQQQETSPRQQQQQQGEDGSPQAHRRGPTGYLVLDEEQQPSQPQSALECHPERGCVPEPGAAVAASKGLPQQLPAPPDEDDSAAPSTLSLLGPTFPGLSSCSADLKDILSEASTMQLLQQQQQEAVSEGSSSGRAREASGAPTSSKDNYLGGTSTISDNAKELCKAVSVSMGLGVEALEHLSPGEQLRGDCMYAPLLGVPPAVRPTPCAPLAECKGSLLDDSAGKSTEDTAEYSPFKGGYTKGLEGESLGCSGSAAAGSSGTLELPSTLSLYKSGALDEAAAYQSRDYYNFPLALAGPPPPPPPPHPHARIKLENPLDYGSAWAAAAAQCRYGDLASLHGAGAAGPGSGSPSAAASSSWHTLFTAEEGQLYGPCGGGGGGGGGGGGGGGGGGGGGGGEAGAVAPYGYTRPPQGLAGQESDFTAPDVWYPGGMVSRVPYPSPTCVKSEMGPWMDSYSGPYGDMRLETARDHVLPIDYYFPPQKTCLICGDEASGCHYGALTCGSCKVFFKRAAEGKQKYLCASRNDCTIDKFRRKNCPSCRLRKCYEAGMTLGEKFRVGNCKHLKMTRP
In words: AR-V7 degradation by immunoblotting in CRPC cells. Type of data set: cell-based. As for the experimental part: as §1, §2

A short description of data set [2]: In vitro stability in plasma. Format: in vitro ADME, mouse. To be noted: mice plasma. As for the experimental part:
The stability of ITRI-148 was assessed in plasma across four species: humans, dogs, rats, and mice. ITRI-148 added to pre-warmed plasma at 1 μM was maintained at the designated temperature, and aliquots were collected at 0, 0.5, 1, 2, and 4 hours after incubation. At each time point, 20 μL of the samples was taken to terminate the reaction, followed by LC-MS/MS analysis to determine the remaining compound concentration. Data from duplicated experiments was calculated and presented as mean ± SD.

[3] abbreviates: male, BALB/c, mouse, plasma, po, 10 mg/kg.
[4] abbreviates: VCaP, maximal degradation at 10 μM.

Values joined by “and” are separate entries in the source; they are usually repeats but may differ in a detail not shown here. Equal values may be shown once. Read-outs that look alike come from different tables or passages of the source.

For `O=C1CCC(N2C(=O)c3cccc(NCC(=O)N4CCC(N5CCC(C#Cc6ccc(C7CCN(C8=Nn9c(nnc9C(F)(F)F)CC8)CC7)cc6)CC5)CC4)c3C2=O)C(=O)N1` (centres unmarked) [ITRI-148], in data set [1] (PO, 10 mg/kg, 0-24 h per dosing), the AUC/Dose was 990.1 h⋅kg⋅ng/mL/mg. For the same molecule, the BA in data set [1] (PO, 10 mg/kg, bioavailability) is given as 27.1 ± 0.5%. The “PK (PO, 10 mg/kg) BA” value in data set [1] (PO, bioavailability) was 27.1%. The AUC (commonly the area under the concentration-time curve, a measure of exposure) in data set [1] (setting [3]) was 9900 ng·h/mL. Also, the highest level in data set [1] (setting [3]) (Cmax) was 733 ± 45 ng/mL. The Tmax – broadly, the time from dosing to the highest level – in data set [1] (setting [3]) was found to be 4 h. The AUC(0-t) (as a rule, the area under the concentration-time curve up to a stated or last time point) in data set [1] (male, BALB/c, mouse, plasma, PO, 10 mg/kg, between 0 and 24 h) was found to be 9900 ng·h/mL. In addition, the DC50 in the data set on AR (CWR22Rv1, 48 hours, read-out: DC50 AR) is 1.23 ± 1.86 µM; in the data set with AR (VCaP cells, read-out: half-maximal degradation concentration (DC50) for AR), roughly 0.05 µM; with AR (VCaP, 48 hours, read-out: DC50 AR), 0.05 ± 0.03 µM; on AR-V7 (CWR22Rv1, 48 hours, read-out: DC50 AR-V7), 1.2 ± 0.92 µM; at AR-V7 (VCaP cells, read-out: half-maximal degradation concentration (DC50) for AR-V7), roughly 0.02 µM; on AR-V7 (VCaP, 48 hours, read-out: DC50 AR-V7), 0.02 ± 0.02 µM. Besides, the “Dmax AR” value in the data set on AR (CWR22Rv1, maximal degradation at 10 μM) is 65.02 ± 19.91%; in the data set on AR (setting [4]) it was 80.49 ± 5.61% and 80%. In addition, the Dmax (as a rule, the largest share of the target that was removed) at 10 µM on AR-V7 (CWR22Rv1, CWR22Rv1, maximal degradation at 10 μM) was found to be 72.1 ± 3.15%; on AR-V7 (setting [4]) it was 91.4 ± 2.05%. Moreover, the “Dmax AR-V7” value at AR-V7 (setting [4]) came out at 91%. Also, the “Remaining of intact drug (%)” value in data set [2] (1 μM, incubation up to 4 hours) worked out at 80.2 ± 0.3%. Besides, in data set [2] (mouse, read-out: Plasma Stability t1/2), the half-life at 1 μM is greater than 4 h.

For the origin of these results see publication PMC12661400, “Oral bioavailable ITRI-148 degrades androgen receptor variants and overcomes antiandrogen resistance in advanced prostate cancer” (Neoplasia (New York, N.Y.), 2025).
